In patent US20020137929A1, “1 - (3-heterocyclylphenyl) isothiourea, -isourea, -guanidine and -amidine herbicidal agents” (Intellectual Property Department, BASF Aktiengesellschaft, priority 1998, published 2002):

Key:
GALAP (Galium) = test: Postemergence herbicidal evaluation; type: in vivo, Galium aparine; conditions: postemergence
How it was run: (§1)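 Rate range approx. 0.0156–0.500 kg/ha. Foliar application at 40 psi to ~2-week seedlings; surfactant 0.5% TWEEN 20 in 50/50 acetone/water. Evaluation 4–5 wk post-treatment by 0–9 visual injury score, means of replicate tests.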

[1] = tested on: IPOHE (Morningglory, Ivyleaf); test: Postemergence herbicidal evaluation; type: in vivo, Ipomoea hederacea; conditions: postemergence
How it was run: as §1

SETVI (Foxtail, Green) [2] = test: Postemergence herbicidal evaluation; type: in vivo, Setaria viridis; conditions: postemergence
How it was run: as §1

[3] = tested on: TRZAWR (Wheat, Winter, cv Riband); test: Postemergence herbicidal evaluation; type: in vivo, Triticum aestivum; conditions: postemergence
How it was run: as §1

ABUTH (Velvetleaf) = test: Preemergence herbicidal evaluation; type: in vivo, Abutilon theophrasti; conditions: rated 4-5 weeks after treatment
How it was run: (§2)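 Test compound, dissolved in aqueous acetone, was sprayed over planted soil cups at an equivalent of about 0.0156 to 0.500 kg/ha; seeds had been mixed with potting soil. Greenhouse growth followed, with visual 0-9 scoring of injury at four to five weeks.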

[4] = tested on: IPOHE (Morningglory, Ivyleaf); test: Preemergence herbicidal evaluation; type: in vivo, Ipomoea hederacea; conditions: rated 4-5 weeks after treatment
How it was run: as §2

ECHCG (Barnyardgrass) = test: Preemergence herbicidal evaluation; type: in vivo, Echinochloa crus-galli; conditions: rated 4-5 weeks after treatment
How it was run: as §2

SETVI (Foxtail, Green) [5] = test: Preemergence herbicidal evaluation; type: in vivo, Setaria viridis; conditions: rated 4-5 weeks after treatment
How it was run: as §2

ZEAMX (Corn, Field) = test: Preemergence herbicidal evaluation; type: in vivo, Zea mays; conditions: rated 4-5 weeks after treatment
How it was run: as §2

[6] = tested on: ECHORC (Watergrass (Calif.)); test: Preemergence weed control under flooded paddy conditions; type: in vivo, Echinochloa oryzoides; conditions: rated 3-4 weeks after treatment
How it was run: (§3)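 Herbicidal effect is scored visually on a 0-9 scale against an untreated control, three to four weeks after compounds are pipetted into the flood water (1.5 to 3 cm deep) over seeds planted in silt loam at 0.5 cm depth. Rates: about 0.0313 to 0.500 kg/ha.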

CYPIR (Rice Flatsedge) = test: as above; type: in vivo, Cyperus iria; conditions: rated 3-4 weeks after treatment
How it was run: as §3

MOOVA (Monochoria) = test: as above; type: in vivo, Monochoria vaginalis; conditions: rated 3-4 weeks after treatment
How it was run: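 First, seeds or propagules go into the top 0.5 cm of silt loam; next, water is held 1.5 to 3 cm over the soil; then compound (50/50 acetone/water) is pipetted into it at about 0.0313 to 0.500 kg/ha; finally plants are rated visually 0-9 after three to four weeks.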

Q: Which “Herbicidal rating GALAP” value (GALAP (Galium); rate 0.0156 kg/ha) does the source give for `CC(C)N1C(=O)CSC1=Nc1cc(-n2c(=O)cc(C(F)(F)F)n(C)c2=O)c(F)cc1Cl` [Compound 164, 3-{4-Chloro-2-fluoro-5-[(3-isopropyl-4-oxo-2-thiazolidinylidene)amino]phenyl}-1-methyl-6-(trifluoromethyl)-2,4(1H,3H)-pyrimidinedione] here?
A: 3.0

Q: What about the “Herbicidal rating GALAP” value (GALAP (Galium); rate 0.0313 kg/ha) of the same molecule?
A: 4.0

Q: What about the “Herbicidal rating GALAP” value (GALAP (Galium); rate 0.0625 kg/ha) of the same molecule?
A: 7.0

Q: And the “Herbicidal rating GALAP” value (GALAP (Galium); rate 0.1250 kg/ha)?
A: 6.0

Q: What about the “Herbicidal rating IPOHE” value ([1]; rate 0.0156 kg/ha) of the same molecule?
A: 9.0

Q: What about the “Herbicidal rating IPOHE” value ([1]; rate 0.0313 kg/ha) of the same molecule?
A: 9.0

Q: And the “Herbicidal rating IPOHE” value ([1]; rate 0.0625 kg/ha)?
A: 9.0

Q: What about the “Herbicidal rating IPOHE” value ([1]; rate 0.1250 kg/ha) of the same molecule?
A: 9.0

Q: What about the “Herbicidal rating SETVI” value (SETVI (Foxtail, Green) [2]; rate 0.0156 kg/ha) of the same molecule?
A: 4.0

Q: What about the “Herbicidal rating SETVI” value (SETVI (Foxtail, Green) [2]; rate 0.0313 kg/ha) of the same molecule?
A: 7.0

Q: And the “Herbicidal rating SETVI” value (SETVI (Foxtail, Green) [2]; rate 0.0625 kg/ha)?
A: 9.0

Q: And the “Herbicidal rating SETVI” value (SETVI (Foxtail, Green) [2]; rate 0.1250 kg/ha)?
A: 6.0

Q: What about the “Herbicidal rating TRZAWR” value ([3]; rate 0.0156 kg/ha) of the same molecule?
A: 4.0

Q: What about the “Herbicidal rating TRZAWR” value ([3]; rate 0.0313 kg/ha) of the same molecule?
A: 4.5

Q: And the “Herbicidal rating TRZAWR” value ([3]; rate 0.0625 kg/ha)?
A: 5.5

Q: What about the “Herbicidal rating TRZAWR” value ([3]; rate 0.1250 kg/ha) of the same molecule?
A: 5.5

Q: What about the “Preemergence herbicidal rating ABUTH” value (ABUTH (Velvetleaf); 0.0156 kg/ha) of the same molecule?
A: 6.0

Q: And the “Preemergence herbicidal rating ABUTH” value (ABUTH (Velvetleaf); 0.0313 kg/ha)?
A: 9.0

Q: And the “Preemergence herbicidal rating ABUTH” value (ABUTH (Velvetleaf); 0.0625 kg/ha)?
A: 9.0

Q: And the “Preemergence herbicidal rating ABUTH” value (ABUTH (Velvetleaf); 0.1250 kg/ha)?
A: 9.0

Q: What about the “Preemergence herbicidal rating ABUTH” value (ABUTH (Velvetleaf); 0.2500 kg/ha) of the same molecule?
A: 9.0

Q: What about the “Preemergence herbicidal rating ABUTH” value (ABUTH (Velvetleaf); 0.5000 kg/ha) of the same molecule?
A: 9.0

Q: What about the “Preemergence herbicidal rating IPOHE” value ([4]; 0.0156 kg/ha) of the same molecule?
A: 4.0

Q: And the “Preemergence herbicidal rating IPOHE” value ([4]; 0.0313 kg/ha)?
A: 9.0

Q: And the “Preemergence herbicidal rating IPOHE” value ([4]; 0.0625 kg/ha)?
A: 9.0

Q: What about the “Preemergence herbicidal rating IPOHE” value ([4]; 0.1250 kg/ha) of the same molecule?
A: 9.0

Q: What about the “Preemergence herbicidal rating IPOHE” value ([4]; 0.2500 kg/ha) of the same molecule?
A: 9.0

Q: And the “Preemergence herbicidal rating IPOHE” value ([4]; 0.5000 kg/ha)?
A: 9.0

Q: And the “Preemergence herbicidal rating ECHCG” value (ECHCG (Barnyardgrass); 0.0156 kg/ha)?
A: 0.0

Q: And the “Preemergence herbicidal rating ECHCG” value (ECHCG (Barnyardgrass); 0.0313 kg/ha)?
A: 7.0

Q: And the “Preemergence herbicidal rating ECHCG” value (ECHCG (Barnyardgrass); 0.0625 kg/ha)?
A: 7.0

Q: What about the “Preemergence herbicidal rating ECHCG” value (ECHCG (Barnyardgrass); 0.1250 kg/ha) of the same molecule?
A: 9.0

Q: What about the “Preemergence herbicidal rating ECHCG” value (ECHCG (Barnyardgrass); 0.2500 kg/ha) of the same molecule?
A: 9.0

Q: And the “Preemergence herbicidal rating ECHCG” value (ECHCG (Barnyardgrass); 0.5000 kg/ha)?
A: 9.0

Q: And the “Preemergence herbicidal rating SETVI” value (SETVI (Foxtail, Green) [5]; 0.0156 kg/ha)?
A: 4.0

Q: And the “Preemergence herbicidal rating SETVI” value (SETVI (Foxtail, Green) [5]; 0.0313 kg/ha)?
A: 9.0

Q: What about the “Preemergence herbicidal rating SETVI” value (SETVI (Foxtail, Green) [5]; 0.0625 kg/ha) of the same molecule?
A: 9.0

Q: What about the “Preemergence herbicidal rating SETVI” value (SETVI (Foxtail, Green) [5]; 0.1250 kg/ha) of the same molecule?
A: 9.0

Q: What about the “Preemergence herbicidal rating SETVI” value (SETVI (Foxtail, Green) [5]; 0.2500 kg/ha) of the same molecule?
A: 9.0

Q: And the “Preemergence herbicidal rating SETVI” value (SETVI (Foxtail, Green) [5]; 0.5000 kg/ha)?
A: 9.0

Q: And the “Preemergence herbicidal rating ZEAMX” value (ZEAMX (Corn, Field); 0.0156 kg/ha)?
A: 2.0

Q: And the “Preemergence herbicidal rating ZEAMX” value (ZEAMX (Corn, Field); 0.0313 kg/ha)?
A: 3.0

Q: What about the “Preemergence herbicidal rating ZEAMX” value (ZEAMX (Corn, Field); 0.0625 kg/ha) of the same molecule?
A: 6.0

Q: What about the “Preemergence herbicidal rating ZEAMX” value (ZEAMX (Corn, Field); 0.1250 kg/ha) of the same molecule?
A: 7.0

Q: What about the “Preemergence herbicidal rating ZEAMX” value (ZEAMX (Corn, Field); 0.2500 kg/ha) of the same molecule?
A: 8.0

Q: What about the “Preemergence herbicidal rating ZEAMX” value (ZEAMX (Corn, Field); 0.5000 kg/ha) of the same molecule?
A: 9.0

Q: What about the “herbicidal effect rating, ECHORC” value ([6]; 0.0313 kg/ha) of the same molecule?
A: 6.0

Q: What about the “herbicidal effect rating, ECHORC” value ([6]; 0.0625 kg/ha) of the same molecule?
A: 7.0

Q: And the “herbicidal effect rating, ECHORC” value ([6]; 0.1250 kg/ha)?
A: 9.0

Q: And the “herbicidal effect rating, ECHORC” value ([6]; 0.2500 kg/ha)?
A: 9.0

Q: And the “herbicidal effect rating, CYPIR” value (CYPIR (Rice Flatsedge); 0.0313 kg/ha)?
A: 3.0

Q: What about the “herbicidal effect rating, CYPIR” value (CYPIR (Rice Flatsedge); 0.0625 kg/ha) of the same molecule?
A: 5.0

Q: And the “herbicidal effect rating, CYPIR” value (CYPIR (Rice Flatsedge); 0.1250 kg/ha)?
A: 6.0

Q: What about the “herbicidal effect rating, CYPIR” value (CYPIR (Rice Flatsedge); 0.2500 kg/ha) of the same molecule?
A: 9.0

Q: And the “herbicidal effect rating, MOOVA” value (MOOVA (Monochoria); 0.0313 kg/ha)?
A: 8.0

Q: And the “herbicidal effect rating, MOOVA” value (MOOVA (Monochoria); 0.0625 kg/ha)?
A: 9.0

Q: What about the “herbicidal effect rating, MOOVA” value (MOOVA (Monochoria); 0.1250 kg/ha) of the same molecule?
A: 9.0

Q: What about the “herbicidal effect rating, MOOVA” value (MOOVA (Monochoria); 0.2500 kg/ha) of the same molecule?
A: 9.0
